In brackets after ≈: the same amount, converted by molar mass.
Legend:
Escherichia coli = test: Antibacterial activity against Escherichia coli ATCC35218 after 24 hrs by MTT assay; assay type: functional; details: ATCC35218, 24 h
Pseudomonas aeruginosa = test: Antibacterial activity against Pseudomonas aeruginosa ATCC13525 after 24 hrs by MTT assay; assay type: functional; details: ATCC13525, 24 h
Bacillus subtilis = test: Antibacterial activity against Bacillus subtilis ATCC6633 after 24 hrs by MTT assay; assay type: functional; details: ATCC6633, 24 h
Staphylococcus aureus = test: Antibacterial activity against Staphylococcus aureus ATCC6538 after 24 hrs by MTT assay; assay type: functional; details: ATCC6538, 24 h
[1] = molecular target: T1, 3-oxoacyl-[acyl-carrier-protein] synthase 3 (Escherichia coli, UniProt C3TDZ2); test: Inhibition of N-terminal His-tagged Escherichia coli FabH expressed in Escherichia coli BL21 (DE3) using [3H]acetyl-coA after 25 mins by liquid scintillation counting
T1 sequence (C3TDZ2 whole entry): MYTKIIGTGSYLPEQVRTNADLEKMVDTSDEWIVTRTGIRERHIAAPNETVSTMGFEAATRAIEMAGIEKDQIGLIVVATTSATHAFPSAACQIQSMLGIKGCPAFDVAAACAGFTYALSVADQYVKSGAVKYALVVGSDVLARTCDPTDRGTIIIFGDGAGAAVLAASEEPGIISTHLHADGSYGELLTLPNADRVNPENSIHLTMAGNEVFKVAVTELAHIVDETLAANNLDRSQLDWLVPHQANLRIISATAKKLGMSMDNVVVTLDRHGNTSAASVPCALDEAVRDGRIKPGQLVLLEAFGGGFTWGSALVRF

[2] = Toxicity in erythrocytes assessed as hemolytic activity; assay type: cell-based; details: erythrocyte

SMILES | MIC (Escherichia coli) [µg/mL] | MIC (Pseudomonas aeruginosa) [µg/mL] | MIC (Bacillus subtilis) [µg/mL] | MIC (Staphylococcus aureus) [µg/mL] | IC50 [1] [µM] | Ki [1] [pM] | MHC [2] [mg/mL]
Cc1ccc(/C=C/C(=O)OC(C)Cn2c([N+](=O)[O-])cnc2C)cc1 (stereo unspecified) | 100 (≈ 304 µM) | 50 (≈ 152 µM) | > 100 | > 100 | – | – | –
COc1ccc(/C=C/C(=O)OC(C)Cn2c([N+](=O)[O-])cnc2C)cc1 (stereo unspecified) | > 100 | > 100 | 50 (≈ 145 µM) | 50 (≈ 145 µM) | – | – | –
Cc1ncc([N+](=O)[O-])n1CC(C)OC(=O)/C=C/c1cccc2ccccc12 (stereo unspecified) | 25 (≈ 68.4 µM) | 50 (≈ 137 µM) | 25 (≈ 68.4 µM) | 50 (≈ 137 µM) | 48.9 | – | > 10
Cc1ncc([N+](=O)[O-])n1CC(C)OC(=O)/C=C/c1ccc2ccccc2c1 (stereo unspecified) | 50 (≈ 137 µM) | 50 (≈ 137 µM) | 50 (≈ 137 µM) | 100 (≈ 274 µM) | – | – | –
Cc1ncc([N+](=O)[O-])n1CC(C)OC(=O)/C=C/c1cccs1 (stereo unspecified) | 50 (≈ 156 µM) | 50 (≈ 156 µM) | > 100 | 50 (≈ 156 µM) | – | – | –
Cc1ncc([N+](=O)[O-])n1CC(C)OC(=O)/C=C/c1ccccc1 (stereo unspecified) | > 100 | > 100 | > 100 | > 100 | – | 1.32 | –
Cc1ncc([N+](=O)[O-])n1CC(C)OC(=O)/C=C/c1ccccc1F (stereo unspecified) | > 100 | > 100 | > 100 | > 100 | – | – | –
Cc1ncc([N+](=O)[O-])n1CC(C)OC(=O)/C=C/c1ccccc1Cl (stereo unspecified) | 50 (≈ 143 µM) | 25 (≈ 71.5 µM) | 50 (≈ 143 µM) | 50 (≈ 143 µM) | – | – | –
Cc1ncc([N+](=O)[O-])n1CC(C)OC(=O)/C=C/c1ccccc1Br (stereo unspecified) | 25 (≈ 63.4 µM) | 25 (≈ 63.4 µM) | 50 (≈ 127 µM) | 25 (≈ 63.4 µM) | 40.1 | – | > 10
COc1ccccc1/C=C/C(=O)OC(C)Cn1c([N+](=O)[O-])cnc1C (stereo unspecified) | > 100 | > 100 | > 100 | > 100 | – | 1.79 | –
COc1cccc(/C=C/C(=O)OC(C)Cn2c([N+](=O)[O-])cnc2C)c1 (stereo unspecified) | > 100 | > 100 | > 100 | > 100 | – | 2.73 | –
Cc1ncc([N+](=O)[O-])n1CC(C)OC(=O)/C=C/c1ccc(F)cc1 (stereo unspecified) | 50 (≈ 150 µM) | 50 (≈ 150 µM) | 50 (≈ 150 µM) | 100 (≈ 300 µM) | – | – | –
O=C(O)/C=C/c1ccccc1 [CINNAMIC ACID] | – | – | – | – | 43.4 | – | > 10
NC[C@H]1O[C@H](O[C@H]2[C@H](O)[C@@H](O[C@H]3O[C@H](CO)[C@@H](O)[C@H](N)[C@H]3O)[C@H](N)C[C@@H]2N)[C@H](O)[C@@H](O)[C@@H]1O [KANAMYCIN] | 3.13 (≈ 6.46 µM) | 3.13 (≈ 6.46 µM) | 1.56 (≈ 3.22 µM) | 1.56 (≈ 3.22 µM) | – | – | –
Cc1ncc([N+](=O)[O-])n1CC(C)O (stereo unspecified) [SECNIDAZOLE] | – | – | – | – | 28.5 | – | > 10

Further compounds by falling MIC (Escherichia coli), results first:

MIC (Escherichia coli) [µg/mL] | MIC (Pseudomonas aeruginosa) [µg/mL] | MIC (Bacillus subtilis) [µg/mL] | MIC (Staphylococcus aureus) [µg/mL] | IC50 [1] [µM] | Ki [1] [pM] | SMILES | MHC [2] [mg/mL]
12.5 (≈ 35.7 µM) | 25 (≈ 71.5 µM) | 12.5 (≈ 35.7 µM) | 25 (≈ 71.5 µM) | 34.3 | – | Cc1ncc([N+](=O)[O-])n1CC(C)OC(=O)/C=C/c1ccc(Cl)cc1 (stereo unspecified) | > 10
12.5 (≈ 31.7 µM) | 12.5 (≈ 31.7 µM) | 25 (≈ 63.4 µM) | 12.5 (≈ 31.7 µM) | 27.5 | – | Cc1ncc([N+](=O)[O-])n1CC(C)OC(=O)/C=C/c1cccc(Br)c1 (stereo unspecified) | > 10
6.25 (≈ 15.9 µM) | 6.25 (≈ 15.9 µM) | 3.13 (≈ 7.94 µM) | 3.13 (≈ 7.94 µM) | 15.6 | – | Cc1ncc([N+](=O)[O-])n1CC(C)OC(=O)/C=C/c1ccc(Br)cc1 (stereo unspecified) | > 10
6.25 (≈ 17.4 µM) | 6.25 (≈ 17.4 µM) | 12.5 (≈ 34.9 µM) | 6.25 (≈ 17.4 µM) | 19.8 | – | Cc1ncc([N+](=O)[O-])n1CC(C)OC(=O)/C=C/c1ccc(N(C)C)cc1 (stereo unspecified) | > 10
3.13 (≈ 7.43 µM) | 6.25 (≈ 14.8 µM) | 6.25 (≈ 14.8 µM) | 3.13 (≈ 7.43 µM) | 6.7 | – | Cc1ncc([N+](=O)[O-])n1CC(C)OC(=O)/C=C/c1ccc(OCc2ccccc2)cc1 (stereo unspecified) | > 10
3.13 (≈ 8.15 µM) | 6.25 (≈ 16.3 µM) | 6.25 (≈ 16.3 µM) | 12.5 (≈ 32.5 µM) | 9.4 | – | Cc1ncc([N+](=O)[O-])n1CC(C)OC(=O)/C=C/c1ccc(Cl)cc1Cl (stereo unspecified) | > 10
3.13 (≈ 9.39 µM) | 3.13 (≈ 9.39 µM) | 6.25 (≈ 18.8 µM) | 6.25 (≈ 18.8 µM) | 8.2 | – | Cc1ncc([N+](=O)[O-])n1CC(C)OC(=O)/C=C/c1cccc(F)c1 (stereo unspecified) | > 10
1.56 (≈ 3.99 µM) | 3.13 (≈ 8 µM) | 6.25 (≈ 16 µM) | 1.56 (≈ 3.99 µM) | 2.5 | – | Cc1ncc([N+](=O)[O-])n1CC(C)OC(=O)/C=C/c1ccc(-c2ccccc2)cc1 (stereo unspecified) | > 10

From ChEMBL document CHEMBL1806404, “Synthesis, molecular modeling and biological evaluation of β-ketoacyl-acyl carrier protein synthase III (FabH) as novel antibacterial agents” (Bioorg Med Chem, 2011)
